In brackets after ≈: the same amount, converted by molar mass. Activity calls are given as the source filed them. The calls are words filed in the database; no cut-off is given here.
Experiments:
[1] = test system: Staphylococcus aureus; assay: Antibacterial activity against Staphylococcus aureus ATCC 25923 assessed as fold increase in MIC in presence of FeCl3; assay type: functional
[2] = test system: Pseudomonas aeruginosa; assay: Antibacterial activity against Pseudomonas aeruginosa ATCC 27853 assessed as bacterial growth inhibition incubated for 18 hrs by broth microdilution method; assay type: functional
[3] = test system: Staphylococcus aureus; assay: Inhibition of biofilm formation in Staphylococcus aureus ATCC 25923 assessed as inhibition of biofilm formation at 1/4 times MIC incubated for 24 hrs by crystal violet staining based analysis; assay type: functional, organism-based
[4] = test system: Cell membrane; assay: Induction of outer membrane permeabilization in Escherichia coli ATCC 25922 assessed as increase in fluorescence intensity at 4 times MIC measured for 12 hrs by NPN uptake assay; assay type: subcellular
[5] = test system: Staphylococcus aureus; assay: Antibacterial activity against Staphylococcus aureus ATCC 25923 assessed as fold increase in MIC in presence of MgCl2; assay type: functional
[6] = test system: Staphylococcus aureus; assay: Induction of membrane morphological changes in Staphylococcus aureus ATCC 25923 assessed as appearance of broken bacterial cells at 4 times MIC measured at 0.5 to 2 hrs by SEM analysis; assay type: functional, organism-based; settings: time 0.5-2 hrs
[7] = test system: Cell membrane; assay: Induction of cell membrane damage in Staphylococcus aureus ATCC 25923 at 2 times MIC measured at 30 mins by propidium iodide staining based flow cytometer assay; assay type: subcellular
[8] = test system: Staphylococcus aureus; assay: Antibacterial activity against Staphylococcus aureus ATCC 25923 in presence of 10% mouse serum measured for 6 hrs; assay type: functional, organism-based
[9] = test system: Staphylococcus aureus; assay: Antibacterial activity against Staphylococcus aureus ATCC 25923 assessed as bacterial growth inhibition incubated for 18 hrs by broth microdilution method; assay type: functional
[10] = test system: Escherichia coli; assay: Bactericidal activity against Escherichia coli ATCC 25922 assessed as inhibition of bacterial growth at 0.5 to 2 times MIC by time-kill assay; assay type: functional, organism-based; settings: time <= 360.0 min, TDE = time-dependent effect
[11] = test system: Staphylococcus aureus; assay: Induction of membrane morphological changes in Staphylococcus aureus ATCC 25923 assessed as appearance of blistered bacterial cells at 4 times MIC measured at 0.5 to 2 hrs by SEM analysis; assay type: functional, organism-based; settings: time 0.5-2 hrs
[12] = test system: Escherichia coli; assay: Inhibition of biofilm formation in Escherichia coli ATCC 25922 assessed as inhibition of biofilm formation at 1/2 times MIC incubated for 24 hrs by crystal violet staining based analysis; assay type: functional, organism-based
[13] = test system: Bacillus subtilis; assay: Antibacterial activity against Bacillus subtilis ATCC 23857 assessed as bacterial growth inhibition incubated for 18 hrs by broth microdilution method; assay type: functional
[14] = test system: Escherichia coli; assay: Inhibition of biofilm formation in Escherichia coli ATCC 25922 assessed as inhibition of biofilm formation incubated for 24 hrs by crystal violet staining based analysis; assay type: functional, organism-based
[15] = test system: Escherichia coli; assay: Antibacterial activity against Escherichia coli ATCC 25922 assessed as bacterial growth inhibition incubated for 18 hrs by broth microdilution method; assay type: functional
[16] = test system: Staphylococcus aureus; assay: Antibiofilm activity against Staphylococcus aureus ATCC 25923 assessed as biofilm eradication at 4 times MIC incubated for 24 hrs; assay type: functional, organism-based
[17] = test system: Cell membrane; assay: Induction of inner membrane permeabilization in Escherichia coli ML-35 ATCC 43837 assessed as increase in fluorescence intensity at 1 to 4 times MIC incubated upto 150 mins by ONPG staining based analysis; assay type: subcellular
[18] = test system: Escherichia coli; assay: Antibiofilm activity against Escherichia coli ATCC 25922 assessed as biofilm eradication at 4 times MIC incubated for 24 hrs; assay type: functional, organism-based
[19] = test system: Escherichia coli; assay: Antimicrobial activity against Escherichia coli ATCC 25922 assessed as reduction in microbial growth measured for 18 hrs in presence of 512 microg/ml LPS; assay type: functional, organism-based
[20] = test system: Escherichia coli; assay: Inhibition of biofilm formation in Escherichia coli ATCC 25922 assessed as inhibition of biofilm formation at 1 to 2 times MIC incubated for 24 hrs by crystal violet staining based analysis; assay type: functional, organism-based
[21] = test system: Escherichia coli; assay: Antimicrobial activity against Escherichia coli ATCC 25922 assessed as reduction in survival bacterial growth in presence of trypsin measured after 6 hrs; assay type: functional, organism-based
[22] = test system: Staphylococcus aureus; assay: Antibacterial activity against Staphylococcus aureus ATCC 25923 assessed as fold increase in MIC in presence of NaCl; assay type: functional
[23] = test system: Escherichia coli; assay: Antibiofilm activity against Escherichia coli ATCC 25922 assessed as biofilm eradication at 2 times MIC incubated for 24 hrs; assay type: functional, organism-based
[24] = test system: Staphylococcus aureus; assay: Inhibition of biofilm formation in Staphylococcus aureus ATCC 25923 assessed as inhibition of biofilm formation at 2 times MIC incubated for 24 hrs by crystal violet staining based analysis; assay type: functional, organism-based
[25] = test system: Escherichia coli; assay: Induction of drug resistance against Escherichia coli ATCC 25922 assessed as fold increase in MIC measured upto 15 passages by sequential passaging method; assay type: functional
[26] = test system: Escherichia coli; assay: Inhibition of biofilm formation in Escherichia coli ATCC 25922 assessed as inhibition of biofilm formation at 1/4 times MIC incubated for 24 hrs by crystal violet staining based analysis; assay type: functional, organism-based
[27] = test system: Staphylococcus aureus; assay: Bactericidal activity against Staphylococcus aureus ATCC 25923 assessed as inhibition of bacterial growth at 1 times MIC measured upto 360 mins by time-kill assay; assay type: functional, organism-based
[28] = test system: Staphylococcus aureus; assay: Antibacterial activity against Staphylococcus aureus ATCC 25923 assessed as fold increase in MIC in presence of ZnCl2; assay type: functional
[29] = test system: Staphylococcus aureus; assay: Bactericidal activity against Staphylococcus aureus ATCC 25923 assessed as inhibition of bacterial growth incubated upto 360 mins by time-kill assay; assay type: functional, organism-based
[30] = test system: Staphylococcus aureus; assay: Induction of membrane morphological changes in Staphylococcus aureus ATCC 25923 at 4 times MIC measured at 0.5 to 2 hrs by SEM analysis; assay type: functional, organism-based; settings: time 0.5-2 hrs
[31] = test system: Staphylococcus aureus; assay: Bactericidal activity against Staphylococcus aureus ATCC 25923 assessed as inhibition of bacterial growth at 0.5 to 2 times MIC by time-kill assay; assay type: functional, organism-based; settings: time <= 360.0 min, TDE = time-dependent effect
[32] = test system: Escherichia coli; assay: Bactericidal activity against Escherichia coli ATCC 25922 assessed as inhibition of bacterial growth at 2 times MIC measured upto 360 mins by time-kill assay; assay type: functional, organism-based
[33] = test system: Escherichia coli; assay: Bactericidal activity against Escherichia coli ATCC 25922 assessed as inhibition of bacterial growth at 1/2 times MIC measured at 180 mins by time-kill assay; assay type: functional, organism-based
[34] = test system: Escherichia coli; assay: Antibacterial activity against Escherichia coli ATCC 25922 assessed as fold increase in MIC in presence of MgCl2; assay type: functional
[35] = test system: Escherichia coli; assay: Antibacterial activity against Escherichia coli ATCC 25922 assessed as fold increase in MIC in presence of ZnCl2; assay type: functional
[36] = test system: Cell membrane; assay: Induction of cell membrane damage in Escherichia coli ATCC 25922 at 2 times MIC after 0.5 to 2 hrs by propidium iodide staining based flow cytometer assay; assay type: subcellular; settings: time 0.5-2 hrs
[37] = test system: Escherichia coli; assay: Antibacterial activity against Escherichia coli ATCC 25922 in presence of 10% mouse serum measured for 6 hrs; assay type: functional, organism-based
[38] = test system: Escherichia coli; assay: Antibacterial activity against Escherichia coli ATCC 25922 assessed as fold increase in MIC in presence of NaCl; assay type: functional
[39] = test system: Enterococcus faecalis; assay: Antibacterial activity against Enterococcus faecalis ATCC 29212 assessed as bacterial growth inhibition incubated for 18 hrs by broth microdilution method; assay type: functional
[40] = test system: Cell membrane; assay: Induction of cell membrane damage in Staphylococcus aureus ATCC 25923 at 2 times MIC after 0.5 to 2 hrs by propidium iodide staining based flow cytometer assay; assay type: subcellular; settings: time 0.5-2 hrs
[41] = test system: Cell membrane; assay: Induction of outer membrane permeabilization in Escherichia coli ATCC 25922 assessed as increase in fluorescence intensity at 1 times MIC measured for 12 hrs by NPN uptake assay; assay type: subcellular

## CCCCCCCC(=O)N[C@@H](CCN)C(=O)N[C@H](C(=O)N[C@@H](CCN)C(=O)N[C@H](Cc1ccccc1)C(=O)N[C@@H](CC(C)C)C(=O)N[C@@H](CCN)C(=O)N[C@@H](C(=O)N[C@@H](CC(C)C)C(=O)N[C@@H](Cc1ccc(O)cc1)C(N)=O)C(C)C)[C@@H](C)CC
[1]
  fold change (FC): <=2
[2]
  MIC: 4 µg/mL (≈ 3.35 µM)
[3]
  inhibition: Active
[4]
  Activity: Active
[5]
  fold change (FC): <=2
[6]
  Activity: Active
[7]
  Activity: inactive
[8]
  Activity: Active
[9]
  MIC: 8 µg/mL (≈ 6.71 µM)
[10]
  Activity: Tde
[11]
  Activity: Active
[12]
  inhibition: inactive
[13]
  MIC: 2 µg/mL (≈ 1.68 µM)
[14]
  inhibition: Dose-Dependent Effect
[15]
  MIC: 4 µg/mL (≈ 3.35 µM)
[16]
  Activity: Active
[17]
  Activity: Active
[18]
  Activity: Active
[19]
  Activity: inactive
[20]
  inhibition: Active
[21]
  Activity: Active
[22]
  fold change (FC): <=2
[23]
  Activity: Active
[24]
  inhibition: Active
[25]
  fold change (FC): 64
[26]
  inhibition: inactive
[27]
  Activity: inactive
[28]
  fold change (FC): <=2
[29]
  Activity: Dose-Dependent Effect
[30]
  Activity: Active
[31]
  Activity: Tde
[32]
  Activity: Active
[33]
  Activity: Active
[34]
  fold change (FC): <=2
[35]
  fold change (FC): <=2
[36]
  Activity: Active
[37]
  Activity: Active
[38]
  fold change (FC): <=2
[39]
  MIC: 16 µg/mL (≈ 13.4 µM)
[40]
  Activity: Active
[41]
  Activity: inactive

Reference: ChEMBL document CHEMBL5331122, “Structure-Activity Relationship Study of Antimicrobial Peptide PE2 Delivered Novel Linear Derivatives with Potential of Eradicating Biofilms and Low Incidence of Drug Resistance” (J Med Chem, 2023)
